Some test systems named below: HCT-15 colon; HOP-62 NSCLC; K-562 leukemia; IGROV1 ovarian; TK-10 renal; SF-539 CNS; EKVX NSCLC; 786-0 renal; ACHN renal; SF-268 CNS; HL-60(TB) leukemia; NCI/ADR-RES ovarian.
What all share (test): NCI-60 cell line screen, 48 h

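Test compounds were applied to cells in 96-well plates for 48 hours at 5 doses. TGI is the concentration that stops growth completely.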 Where only a bound is given, the exact number is not on record here.

Take `CCC1(O)C=CC(=O)C=C1`: the TGI in the test with HCT-15 colon is 55.5 µM; with HOP-62 NSCLC it was 67.5 µM; in the test on K-562 leukemia, above 100 µM; with IGROV1 ovarian it was 40.6 µM; in the test on TK-10 renal, 45.6 µM; in the test on SF-539 CNS, 50.6 µM. Further, the TGI is above 100 µM in the test on EKVX NSCLC; 39.2 µM with 786-0 renal; 49 µM in the test with ACHN renal; 52 µM in the test on SF-268 CNS; above 100 µM with HL-60(TB) leukemia; above 66.8 µM with NCI/ADR-RES ovarian.

As for `CC(=O)N[C@@H](Cc1ccc(O)cn1)C(=O)NCc1cccc(F)c1`, the TGI in the test with HCT-15 colon, in the test on HOP-62 NSCLC, in the test on K-562 leukemia, with IGROV1 ovarian, with TK-10 renal and in the test with SF-539 CNS was above 100 µM throughout. The TGI in the test on EKVX NSCLC, in the test on 786-0 renal, in the test on ACHN renal, in the test with SF-268 CNS, in the test on HL-60(TB) leukemia and in the test with NCI/ADR-RES ovarian was above 100 µM each time.

With `O=C1N[C@H]2c3c(Cl)sc(Cl)c3C(=O)[C@H]2O1`, the TGI was 5.51 µM in the test on HCT-15 colon; 42 µM in the test with HOP-62 NSCLC; above 30.7 µM in the test on K-562 leukemia; 14.4 µM in the test on IGROV1 ovarian; above 100 µM with TK-10 renal; 39.9 µM in the test with SF-539 CNS. Moreover, the TGI with EKVX NSCLC is 27.9 µM; with 786-0 renal, above 54.2 µM; in the test on ACHN renal it was 35.6 µM; in the test with SF-268 CNS, 37 µM; in the test on HL-60(TB) leukemia, 4.98 µM; with NCI/ADR-RES ovarian, 37.2 µM.

On to `CCOC(=O)c1cc2cc(Cc3ccc4[nH]c(C(=O)OCC)cc4c3)ccc2[nH]1`, for which the TGI in the test on HCT-15 colon is above 100 µM; with HOP-62 NSCLC it was 23 µM; in the test on K-562 leukemia it was above 100 µM; with IGROV1 ovarian, 35.7 µM; with TK-10 renal, 31.4 µM; in the test on SF-539 CNS, 36.3 µM. Also, the TGI in the test with EKVX NSCLC is 78.9 µM; in the test with 786-0 renal, 13 µM; in the test with ACHN renal it was 44 µM; in the test on SF-268 CNS, 38.5 µM; with HL-60(TB) leukemia it was above 100 µM; in the test with NCI/ADR-RES ovarian, 52.6 µM.

On to `COC1/C=C\C=C(/C)C(=O)NC2=CC(=O)C(NCCCl)=C(CC(C)CC(OC)C(O)C(C)/C=C(/C)C1OC(N)=O)C2=O` (configuration not stated), for which the TGI was found to be 2.77 µM with HCT-15 colon; 5.91 µM with HOP-62 NSCLC; 13.5 µM with K-562 leukemia; 13.6 µM in the test with IGROV1 ovarian; 14.3 µM in the test with TK-10 renal; 2.17 µM with SF-539 CNS. The TGI in the test on EKVX NSCLC came to 22.7 µM; with 786-0 renal, 9.05 µM; in the test on ACHN renal, 10.2 µM; in the test with SF-268 CNS, 14 µM; with HL-60(TB) leukemia, 3.23 µM; in the test on NCI/ADR-RES ovarian, 31.1 µM.

`CN(NC(=O)c1ccco1)C1=NCCCCN1`: the TGI in the test with HCT-15 colon, in the test with HOP-62 NSCLC, with K-562 leukemia, in the test on IGROV1 ovarian, with TK-10 renal and with SF-539 CNS was above 100 µM in each case. The TGI in the test on EKVX NSCLC, with 786-0 renal, with ACHN renal, with SF-268 CNS, in the test on HL-60(TB) leukemia and in the test with NCI/ADR-RES ovarian was above 100 µM in each case.

Take `N#Cc1[nH]c(=O)n(-c2ccc([N+](=O)[O-])cc2)c1N`: the TGI in the test on HCT-15 colon, in the test with HOP-62 NSCLC, in the test on K-562 leukemia, in the test with IGROV1 ovarian, in the test on TK-10 renal and with SF-539 CNS was above 10 µM each time. Moreover, the TGI with EKVX NSCLC, in the test on 786-0 renal, with ACHN renal, in the test with SF-268 CNS, in the test with HL-60(TB) leukemia and in the test with NCI/ADR-RES ovarian was above 10 µM each time.

`NC1=CN(CCCO)C2=N/C(=C\c3ccco3)C(=O)N12`: the TGI in the test on HCT-15 colon, in the test with HOP-62 NSCLC, with K-562 leukemia, with IGROV1 ovarian, in the test with TK-10 renal and in the test on SF-539 CNS was above 100 µM in each case. For the same compound, the TGI with EKVX NSCLC, with 786-0 renal, in the test with ACHN renal, in the test on SF-268 CNS, with HL-60(TB) leukemia and in the test on NCI/ADR-RES ovarian was above 100 µM each time.

`CCOn1cc(C[C@@]2(O)C(=O)OC3[C@@H](O)CO[C@@]32O)c2ccccc21` (some centres not stated): the TGI in the test with HCT-15 colon, in the test with HOP-62 NSCLC, with K-562 leukemia, in the test on IGROV1 ovarian, with TK-10 renal and in the test on SF-539 CNS was above 100 µM throughout. The TGI with EKVX NSCLC, in the test on 786-0 renal, in the test with ACHN renal, in the test on SF-268 CNS, with HL-60(TB) leukemia and with NCI/ADR-RES ovarian was above 100 µM each time.

On to `Oc1ccc(-c2cc(-c3c(O)cc(O)cc3O)on2)cc1`, for which the TGI with HCT-15 colon, in the test on HOP-62 NSCLC, in the test with K-562 leukemia, in the test with IGROV1 ovarian, in the test on TK-10 renal and in the test on SF-539 CNS was above 100 µM each time. Further, the TGI in the test on EKVX NSCLC, in the test with 786-0 renal, in the test on ACHN renal, with SF-268 CNS, in the test with HL-60(TB) leukemia and with NCI/ADR-RES ovarian was above 100 µM in each case.

`COc1ccc(C2CC(c3cc4c(C)c(C(=O)c5ccccc5)oc4cc3O)=Nc3ccccc3S2)cc1OC` (configuration not stated): the TGI in the test with HCT-15 colon was above 100 µM; in the test on HOP-62 NSCLC, above 34.3 µM; with K-562 leukemia, above 100 µM; in the test on IGROV1 ovarian, above 100 µM; in the test with TK-10 renal it was above 100 µM; with SF-539 CNS, above 86.2 µM. For the same compound, the TGI in the test on EKVX NSCLC, in the test on 786-0 renal, in the test with ACHN renal, in the test on SF-268 CNS, with HL-60(TB) leukemia and with NCI/ADR-RES ovarian was above 100 µM throughout.
